# Experiments:
# cocklebur = test: Test B pre/postemergence cocklebur; type: in vivo, Xanthium strumarium
# In short: (§1)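 Response is a visual 0-to-10 score relative to untreated plants, where 0 means no effect and 10 means complete control, taken twelve to sixteen days after application. Treatments went onto soil at planting and onto foliage of 1- to 4-leaf plants, using a surfactant-containing non-phytotoxic solvent.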
# blackgrass = test: Test B pre/postemergence blackgrass; type: in vivo, Alopecurus myosuroides
# In short: as §1
# soybean = test: Test B pre/postemergence soybean; type: in vivo, Glycine max
# In short: as §1
# pigweed = test: Test B pre/postemergence pigweed; type: in vivo, Amaranthus retroflexus
# In short: as §1
# surinam grass = test: Test B pre/postemergence surinam grass; type: in vivo, Brachiaria decumbens
# In short: as §1
# morningglory = test: Test B pre/postemergence morningglory; type: in vivo, Ipomoea hederacea
# In short: as §1
# wild oat = test: Test B pre/postemergence wild oat; type: in vivo, Avena fatua
# In short: as §1
# sugar beet = test: Test B pre/postemergence sugar beet; type: in vivo, Beta vulgaris
# In short: as §1
# crabgrass = test: Test B pre/postemergence crabgrass; type: in vivo, Digitaria sanguinalis
# In short: as §1
# giant foxtail = test: Test B pre/postemergence giant foxtail; type: in vivo, Setaria faberii
# In short: as §1
# corn = test: Test B pre/postemergence corn; type: in vivo, Zea mays
# In short: as §1
# rape = test: Test B pre/postemergence rape; type: in vivo, Brassica napus
# In short: as §1
# bedstraw = test: Test B pre/postemergence bedstraw; type: in vivo, Galium aparine
# In short: as §1
# purple nutsedge = test: Test B pre/postemergence purple nutsedge; type: in vivo, Cyperus rotundus
# In short: as §1
# velvetleaf = test: Test B pre/postemergence velvetleaf; type: in vivo, Abutilon theophrasti
# In short: as §1
# wheat = test: Test B pre/postemergence wheat; type: in vivo, Triticum aestivum
# In short: as §1
# [1] = Postemergence, Rate 62 g/ha, scale of 0 to 10, 0 is no effect, 10 is complete control
# [2] = Postemergence, Rate 125 g/ha, scale 0 to 10, 0 is no effect, 10 is complete control
# [3] = Postemergence, Rate 500 g/ha, scale of 0 to 10 where 0 is no effect and 10 is complete control
# [4] = Preemergence, Rate 62 g/ha, scale 0 to 10 (0 no effect, 10 complete control)
# [5] = Preemergence, Rate 125 g/ha, scale 0 to 10, 0 is no effect, 10 is complete control
# [6] = Preemergence, Rate 500 g/ha, scale of 0 to 10 where 0 is no effect and 10 is complete control
# [7] = Rate 250 g/ha, Postemergence, scale of 0 to 10 where 0 is no effect and 10 is complete control
# [8] = Preemergence, Rate 125 g/ha, scale of 0 to 10 where 0 is no effect and 10 is complete control
# [9] = Preemergence, Rate 250 g/ha, scale 0 (no effect) to 10 (complete control)
# [10] = Rate 62 g/ha, Preemergence, scale 0 to 10
# [11] = Rate 500 g/ha, Preemergence, scale 0 to 10 (0 no effect, 10 complete control)
compound,measurement,setting,value
CCOC(=O)C=C(Cn1c(=O)on(C(=O)N(c2ccccc2)C(C)C)c1=O)OCC [Compound 578],Cocklebur plant response rating,cocklebur; [1],0
same,Cocklebur plant response rating,cocklebur; [2],0
same,"Plant response rating, Cocklebur",cocklebur; [3],0
same,Cocklebur plant response rating,cocklebur; [4],0
same,Cocklebur plant response rating,cocklebur; [5],0
same,Cocklebur plant response rating (0 to 10 scale),"cocklebur; Preemergence, Rate 250 g/ha",0
same,Cocklebur plant response rating,cocklebur; [6],3
same,"Plant response rating, Cocklebur",cocklebur; [7],0
same,Blackgrass plant response rating,blackgrass; [1],0
same,Blackgrass plant response rating,blackgrass; [2],0
same,"Plant response rating, Blackgrass",blackgrass; [3],2
same,Blackgrass plant response rating,blackgrass; [4],0
same,Blackgrass plant response rating,blackgrass; [5],0
same,Blackgrass plant response rating (0 to 10 scale),"blackgrass; Preemergence, Rate 250 g/ha",0
same,Blackgrass plant response rating,blackgrass; [6],4
same,"Plant response rating, Blackgrass",blackgrass; [7],0
same,"Plant response rating, Soybean",soybean; [3],4
same,Soybean plant response rating,soybean; [4],0
same,Soybean plant response rating,soybean; [5],0
same,Soybean plant response rating (0 to 10 scale),"soybean; Preemergence, Rate 250 g/ha",0
same,Soybean plant response rating,soybean; [6],0
same,"Plant response rating, Soybean",soybean; [7],3
same,"Plant response rating, Redroot pigweed",pigweed; [3],3
same,Redroot pigweed plant response rating,pigweed; [4],2
same,Redroot pigweed plant response rating,pigweed; [5],4
same,Redroot pigweed plant response rating (0 to 10 scale),"pigweed; Preemergence, Rate 250 g/ha",9
same,Redroot pigweed plant response rating,pigweed; [6],10
same,"Plant response rating, Redroot pigweed",pigweed; [7],3
same,B. signalgrass plant response rating,surinam grass; [1],0
same,B. signalgrass plant response rating,surinam grass; [2],0
same,"Plant response rating, B. signalgrass",surinam grass; [3],0
same,B. signalgrass plant response rating,surinam grass; [4],0
same,B. signalgrass plant response rating,surinam grass; [5],3
same,"B. signalgrass plant response rating (0 to 10 scale, 0 is no effect, 10 is complete control)","surinam grass; Preemergence, Rate 250 g/ha",9
same,B. signalgrass plant response rating,surinam grass; [6],9
same,"Plant response rating, B. signalgrass",surinam grass; [7],0
same,Morningglory plant response rating,morningglory; [1],9
same,Morningglory plant response rating,morningglory; [2],10
same,"Plant response rating, Morningglory",morningglory; [3],10
same,Morningglory plant response rating,morningglory; [4],0
same,Morningglory plant response rating,morningglory; [5],0
same,Morningglory plant response rating (0 to 10 scale),"morningglory; Preemergence, Rate 250 g/ha",0
same,Morningglory plant response rating,morningglory; [6],0
same,"Plant response rating, Morningglory",morningglory; [7],10
same,"Plant response rating, Wild oats",wild oat; [3],0
same,Wild oats plant response rating,wild oat; [4],0
same,Wild oats plant response rating,wild oat; [5],0
same,Wild oats plant response rating (0 to 10 scale),"wild oat; Preemergence, Rate 250 g/ha",2
same,Wild oats plant response rating,wild oat; [6],2
same,"Plant response rating, Wild oats",wild oat; [7],0
same,"Plant response rating, Sugarbeets",sugar beet; [3],4
same,Sugarbeets plant response rating,sugar beet; [4],0
same,Sugarbeets plant response rating,sugar beet; [5],2
same,Sugarbeets plant response rating (0 to 10 scale),"sugar beet; Preemergence, Rate 250 g/ha",3
same,Sugarbeets plant response rating,sugar beet; [6],3
same,"Plant response rating, Sugarbeets",sugar beet; [7],0
same,Crabgrass plant response rating,crabgrass; [1],0
same,Crabgrass plant response rating,crabgrass; [2],2
same,"Plant response rating, Crabgrass",crabgrass; [3],9
same,Crabgrass plant response rating,crabgrass; [4],0
same,Crabgrass plant response rating,crabgrass; [5],9
same,Crabgrass plant response rating (0 to 10 scale),"crabgrass; Preemergence, Rate 250 g/ha",9
same,Crabgrass plant response rating,crabgrass; [6],10
same,"Plant response rating, Crabgrass",crabgrass; [7],4
same,Giant foxtail plant response rating,giant foxtail; [1],0
same,Giant foxtail plant response rating,giant foxtail; [2],4
same,"Plant response rating, Giant foxtail",giant foxtail; [3],8
same,Giant foxtail plant response rating,giant foxtail; [4],2
same,Giant foxtail plant response rating,giant foxtail; [5],9
same,Giant foxtail plant response rating (0 to 10 scale),"giant foxtail; Preemergence, Rate 250 g/ha",10
same,Giant foxtail plant response rating,giant foxtail; [6],10
same,"Plant response rating, Giant foxtail",giant foxtail; [7],7
same,Corn plant response rating,corn; [1],0
same,Corn plant response rating,corn; [2],0
same,"Plant response rating, Corn",corn; [3],0
same,Corn plant response rating,corn; [4],3
same,Corn plant response rating,corn; [5],2
same,Corn plant response rating (0 to 10 scale),"corn; Preemergence, Rate 250 g/ha",2
same,Corn plant response rating,corn; [6],4
same,"Plant response rating, Corn",corn; [7],0
same,Rape plant response rating,rape; [1],2
same,Rape plant response rating,rape; [2],2
same,"Plant response rating, Rape",rape; [3],4
same,Rape plant response rating,rape; [4],0
same,Rape plant response rating,rape; [5],0
same,Rape plant response rating (0 to 10 scale),"rape; Preemergence, Rate 250 g/ha",2
same,Rape plant response rating,rape; [6],4
same,"Plant response rating, Rape",rape; [7],4
same,Bedstraw plant response rating,bedstraw; [2],8
same,Bedstraw plant response rating,bedstraw; [4],0
same,Bedstraw plant response rating,bedstraw; [5],0
same,Bedstraw plant response rating (0 to 10 scale),"bedstraw; Preemergence, Rate 250 g/ha",0
same,Bedstraw plant response rating,bedstraw; [6],0
same,"Plant response rating, Nutsedge",purple nutsedge; [3],0
same,Nutsedge plant response rating,purple nutsedge; [4],0
same,Nutsedge plant response rating,purple nutsedge; [5],0
same,Nutsedge plant response rating (0 to 10 scale),"purple nutsedge; Preemergence, Rate 250 g/ha",0
same,Nutsedge plant response rating,purple nutsedge; [6],0
same,"Plant response rating, Velvetleaf",velvetleaf; [3],3
same,Velvetleaf plant response rating,velvetleaf; [4],0
same,Velvetleaf plant response rating,velvetleaf; [5],2
same,Velvetleaf plant response rating (0 to 10 scale),"velvetleaf; Preemergence, Rate 250 g/ha",2
same,Velvetleaf plant response rating,velvetleaf; [6],2
same,"Plant response rating, Velvetleaf",velvetleaf; [7],4
same,"Plant response rating, Wheat",wheat; [3],0
same,Wheat plant response rating,wheat; [4],0
same,Wheat plant response rating,wheat; [5],0
same,Wheat plant response rating (0 to 10 scale),"wheat; Preemergence, Rate 250 g/ha",0
same,Wheat plant response rating,wheat; [6],2
same,"Plant response rating, Wheat",wheat; [7],0
COC(CCl)n1c(=O)on(C(=O)N(c2ccc(F)cc2F)C(C)C)c1=O (stereo not drawn) [Compound 737],"Plant response rating, Cocklebur",cocklebur; [8],0
same,Cocklebur plant response rating,cocklebur; [9],0
same,Cocklebur plant response rating,cocklebur; [10],0
same,Cocklebur plant response rating,cocklebur; [11],0
same,"Plant response rating, Blackgrass",blackgrass; [8],9
same,Blackgrass plant response rating,blackgrass; [9],9
same,Blackgrass plant response rating,blackgrass; [10],6
same,Blackgrass plant response rating,blackgrass; [11],10
same,"Plant response rating, Soybean",soybean; [8],0
same,Soybean plant response rating,soybean; [9],0
same,Soybean plant response rating,soybean; [10],0
same,Soybean plant response rating,soybean; [11],0
same,"Plant response rating, Redroot pigweed",pigweed; [8],3
same,Redroot pigweed plant response rating,pigweed; [9],6
same,Redroot pigweed plant response rating,pigweed; [10],2
same,Redroot pigweed plant response rating,pigweed; [11],8
same,B. signalgrass plant response rating,"surinam grass; Preemergence, Rate 62 g/ha, scale of 0 to 10 where 0 is no effect and 10 is complete control",4
same,"Plant response rating, B. signalgrass",surinam grass; [8],4
same,B. signalgrass plant response rating,surinam grass; [9],8
same,B. signalgrass plant response rating,surinam grass; [11],9
same,"Plant response rating, Morningglory",morningglory; [8],2
same,Morningglory plant response rating,morningglory; [9],2
same,Morningglory plant response rating,morningglory; [10],1
same,Morningglory plant response rating,morningglory; [11],3
same,"Plant response rating, Wild oats",wild oat; [8],6
same,Wild oats plant response rating,wild oat; [9],8
same,Wild oats plant response rating,wild oat; [10],5
same,Wild oats plant response rating,wild oat; [11],9
same,"Plant response rating, Sugarbeets",sugar beet; [8],5
same,Sugarbeets plant response rating,sugar beet; [9],6
same,Sugarbeets plant response rating,sugar beet; [10],1
same,Sugarbeets plant response rating,sugar beet; [11],6
same,"Plant response rating, Crabgrass",crabgrass; [8],9
same,Crabgrass plant response rating,crabgrass; [9],10
same,Crabgrass plant response rating,crabgrass; [10],8
same,Crabgrass plant response rating,crabgrass; [11],10
same,"Plant response rating, Giant foxtail",giant foxtail; [8],10
same,Giant foxtail plant response rating,giant foxtail; [9],10
same,Giant foxtail plant response rating,giant foxtail; [10],9
same,Giant foxtail plant response rating,giant foxtail; [11],10
same,"Plant response rating, Corn",corn; [8],2
same,Corn plant response rating,corn; [9],3
same,Corn plant response rating,corn; [10],0
same,Corn plant response rating,corn; [11],6
same,"Plant response rating, Rape",rape; [8],0
same,Rape plant response rating,rape; [9],5
same,Rape plant response rating,rape; [10],0
same,Rape plant response rating,rape; [11],6
same,"Plant response rating, Bedstraw",bedstraw; [8],0
same,Bedstraw plant response rating,bedstraw; [9],0
same,Bedstraw plant response rating,bedstraw; [10],0
same,Bedstraw plant response rating,bedstraw; [11],0
same,"Plant response rating, Nutsedge",purple nutsedge; [8],0
same,Nutsedge plant response rating,purple nutsedge; [9],0
same,Nutsedge plant response rating,purple nutsedge; [10],0
same,Nutsedge plant response rating,purple nutsedge; [11],0
same,"Plant response rating, Velvetleaf",velvetleaf; [8],0
same,Velvetleaf plant response rating,velvetleaf; [9],4
same,Velvetleaf plant response rating,velvetleaf; [10],0
same,Velvetleaf plant response rating,velvetleaf; [11],5
same,"Plant response rating, Wheat",wheat; [8],0
same,Wheat plant response rating,wheat; [9],2
same,Wheat plant response rating,wheat; [10],0
same,Wheat plant response rating,wheat; [11],2
